As a reminder, the EC50 is the midpoint of the concentration-response curve.

From US11560400B2, “Salts of diphosphate phosphoramidate of nucleosides as anticancer compounds” (NuCana plc, priority 2017, dated 2023) come the findings set out here.

Where two headings read alike, the source gives them in different places.

One assay relates to HepG2. The experiment in a line: CellTiterGlo cell viability assay, HepG2. In kind it is cell-based. As to conditions: Homo sapiens, HepG2, 72 h; for EC50: read-out: Ab EC50. The essentials:
(§1)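 72 h CTG viability; 9-pt, 3.16-fold titration, 198 μM top to 19.8 nM final; duplicates; 0.5% DMSO final; standard growth conditions. Read-out: absolute EC50 and % inhibition at highest concentration.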
A general note: ATP-based viability assays read luminescence as a measure of living cells.

A further assay has as its system HL-60. The experiment in a line: CellTiterGlo cell viability assay, HL-60. In kind it is cell-based. As to conditions: HL-60, 72 h; for EC50: read-out: Ab EC50. The essentials: as §1
For the next assay, the system named is RPMI-8226. The experiment in a line: CellTiterGlo cell viability assay, RPMI-8226. In kind it is cell-based, Human. Conditions: Homo sapiens, RPMI-8226, 72 h; for EC50: read-out: Ab EC50. The essentials:
as §1

Assay [1] concerns KG1a LSCs and bulk tumour cells. The experiment in a line: γH2A.X phosphorylation assay (DNA damage) in purified LSCs and bulk tumour cells. Conditions: 2-hour exposure, hypoxic conditions (5% O2), in words. In kind it is cell-based. On the procedure:
KG1a cells were grown under hypoxic conditions for 7 days in order to generate 10^7 cells and increase the percentage of cells expressing an LSC phenotype. Subsequently, Lin^−/CD34^+/CD38^−/CD123^+ LSCs and Lin^−/CD34^+/CD38^+/CD123^+ ‘bulk’ tumour cells were purified by high speed cell sorting using a FACS Melody cell sorter (Becton Dickenson) and were placed back into hypoxic cell culture conditions prior to the addition of clofarabine or clofarabine diphosphate phosphoramidates.
Phosphorylation of the histone variant γH2A.X occurs as a rapid response to double strand DNA breaks. The γH2A.X Phosphorylation Assay Kit (Flow cytometry) is a cell-based assay formatted for flow cytometric detection of levels of phosphorylated Histone γH2A.X (Merck, UK). LSC and ‘bulk tumour’ cells were cultured in 96-well plates in the presence of clofarabine or clofarabine diphosphate phosphoramidates. After 2 h of exposure to drug, the cells were harvested by centrifugation and then fixed and permeabilised in preparation for staining and detection. Histone γH2A.X phosphorylated at serine 139 is detected by the addition of the anti-phospho-Histone γH2A.X conjugated to APC. Cells were then run on a flow cytometer to quantitate the number of cells staining positive for phosphorylated Histone γH2A.X.

On to `Nc1nc(Cl)nc2c1ncn2[C@@H]1O[C@H](CO)[C@@H](O)[C@@H]1F` [Clofarabine, reference compound], for which the concentration for a half-maximal effect (EC50) in the assay on HepG2 (Table 3 classes) is 2 to 5 µM; in the assay with HepG2 (Table 4 classes), 1 to 5 µM; in the assay on HL-60 (Table 4 classes), below 0.2 µM; in the assay with HL-60 (Homo sapiens, Table 3 classes), below 0.2 µM; in the assay with RPMI-8226 (Table 3 classes), 5 to 10 µM; in the assay on RPMI-8226 (Table 4 classes), above 10 µM. Besides, the inhibition at 198 µM with HepG2 (percentage inhibition at the highest concentration tested, read-out: Top Inhibit) came to 64%; with HL-60 (Homo sapiens, percentage inhibition at the highest concentration tested, read-out: Top Inh), 97%; in the assay with RPMI-8226 (percentage inhibition at the highest concentration tested, read-out: Top Inh), 89%. For the same compound, the “DNA damage in LSCs compared with bulk tumour cells (γH2A.X phosphorylation)” value in assay [1] is reported as “level of DNA damage in the LSCs was significantly lower than the bulk tumour cells”.
